From PMC10492809, “A Bischler-Napieralski and homo-Mannich sequence enables diversified syntheses of sarpagine alkaloids and analogues” (Nature Communications, 2023)
Where “and” joins values, the source holds several entries; their conditions need not be identical. Identical values can stand only once. Like-named read-outs stand apart in the source and are kept apart here.

Key:
Assay type in all cases: cell-based
CT26 = experiment: MTT cell viability assay, CT26
Experimental: (§1) All cell lines were cultured at 37 °C with 5% CO2 in a humidified incubator. HeLa cells were grown in MEM (Gibco) supplemented with 10% fetal bovine serum (FBS, Hyclone) and 1% penicillin/streptomycin (Gibco). MIA PaCa-2, MDA-MB-231, A549, MCF-7, A375 and BEAS-2B cells were grown in DMEM (Gibco) supplemented with 10% FBS and 1% penicillin/streptomycin. CT26, and HCT116 cells were grown in RPMI-1640 supplemented with 10% FBS and 1% penicillin/streptomycin. All cell lines were purchased from the National Collection of Authenticated Cell Cultures (China).
(§2) The antiproliferative activities of the prepared compounds against tested cell lines were evaluated using a standard (MTT)-based colorimetric assay. Cells were plated at a density of 3000 cells/well in 96-well plates and allowed to adhere overnight. Then cells were treated with varying concentrations of synthesized compounds for 72 h. At the end of treatment, 20 μL of thiazolyl blue tetrazolium bromide (MTT) solution (5 mg/mL) was added to each well. Cells were incubated for an additional 4 h at 37 °C and then the medium was removed and replaced with 200 μL of DMSO. The absorbance (OD490) was read on a microplate reader (SpectraMax i3x, Molecular Devices, US). In all experiments, three replicate wells were used for each drug concentration. Each assay was performed at least three times. The IC50 values were calculated by GraphPad Prism 9, which were the mean values derived from three independent experiments.

MDA-MB-231 cells [1] = experiment: Measurement of glutathione levels
Experimental: Cells were plated at a density of 2 × 10^5 cells/well in 6-well plates and allowed to adhere overnight. After being treated as indicated, cells were collected and prepared for measurement of total intracellular glutathione (GSH + GSSG) using the assay kit (Beyotime, S0052) according to the manufacturer’s instructions. […]

MDA-MB-231 cells [2] = experiment: Cell death manner assay (MTT, co-incubation with cell death inhibitors)
Experimental: [The source words this procedure for another cell line and reports this cell line under the same test.] To investigate the mechanism of 15ai in cancer cell proliferation inhibition, the manners of cell death were analyzed. The cell apoptosis inhibitor Z-VAD-FMK (Z-VAD), cell necrosis inhibitor Necrostatin-1 (Necro-1), ferroptosis inhibitor Ferrostatin-1 (Fer-1), and ROS inhibitor N-acetylcysteine (NAC) were purchased and stored at −20 °C. A375 cells were seeded with a density of 5000 cells/100 µL/well into 96 well plates. After 12 h, 15ai was added at different concentrations. Following that 10 µM Z-VAD, 10 µM Nerco-1, 10 µM Fer-1, and 5 mM NAC were added and co-incubated with 15ai, respectively, for 72 h. Then, 20 µL MTT solution (5 mg/mL) was added and incubated at 37 °C for an additional 4 h. Then, the supernatant was discarded, and 200 μL DMSO was added to dissolve the precipitate. After 15 min, the absorbance (OD490) was read on a microplate reader (SpectraMax i3x, Austria). In all experiments, three replicate wells were used for each drug concentration. Each assay was performed at least three times.

MDA-MB-231 = experiment: MTT cell viability assay, MDA-MB-231
Experimental: as §1, §2

C=C=C1CN2[C@H]3C[C@H]1[C@H](C=O)[C@@H]2Cc1c3n(S(=O)(=O)c2ccc(C)cc2)c2ccc(Cl)cc12 [Compound 15ai]
IC50 (CT26; Mus musculus, CT26, 72 h, MTT, 72 h, mean of at least three independent experiments, read-out: IC50 CT26): 5.98 µM
IC50 (CT26; Mus musculus, CT26, source data sheet, single values of three experiments, read-out: MTT IC50 CT-26): 7.11 µM
IC50 (CT26; source data sheet, single values of three experiments, read-out: MTT IC50 CT-26): 5.83 µM and 4.99 µM
GSH levels (% of control) (MDA-MB-231 cells [1]; 15ai 4 μM per Fig. 4, single replicates): 52.357 % of control and 54.35 % of control
GSH levels (% of control) (MDA-MB-231 cells [1]; (15ai 2 μM per Fig. 4), single replicates): 80.51 % of control and 78.85 % of control
GSH levels (% of control) (MDA-MB-231 cells [1]; (15ai 8 μM per Fig. 4), single replicates): 27.587 % of control and 22.5 % of control
GSH level (% of control) at 2 µM (MDA-MB-231 cells [1]; Homo sapiens, MDA-MB-231, column 2 (15ai 2 μM per Fig. 4), single replicates): 84.6%
GSH level (% of control) at 4 µM (MDA-MB-231 cells [1]; Homo sapiens, MDA-MB-231, column 4 (15ai 4 μM per Fig. 4), single replicates): 61.6%
GSH level (% of control) at 8 µM (MDA-MB-231 cells [1]; Homo sapiens, MDA-MB-231, column 8 (15ai 8 μM per Fig. 4), single replicates): 23.2%
GSH levels (MDA-MB-231 cells [1]; result in words, 15ai 0, 2, 4 and 8 μM): dose-dependently decreased
viability at 10 µM (MDA-MB-231 cells [2]; Homo sapiens, MDA-MB-231, 72 h, read-out: Percentage of viability, Fer-1 / NAC experiment, 15ai 10 μM, Fer-1 10 μM, NAC 5 mM, 72 h, single replicates): 21.2%
reversal of 15ai-induced cell death by Z-VAD or Necro-1 (MDA-MB-231 cells [2]; MDA-MB-231 cells, addition of apoptosis inhibitor Z-VAD-FMK or necroptosis inhibitor necrostatin-1): could not reverse cell death
rescue of cell viability by Fer-1 or NAC (MDA-MB-231 cells [2]; co-existence of ferroptosis inhibitor Fer-1 or ROS inhibitor NAC): remarkably rescued cell viability
IC50 (MDA-MB-231; Homo sapiens, MDA-MB-231, 72 h, MTT, 72 h, mean of at least three independent experiments, read-out: IC50 MDA-MB-231): 2030 nM
IC50 (MDA-MB-231; Homo sapiens, MDA-MB-231, source data sheet, single values of three experiments, read-out: MTT IC50 MDA-MB-231): 1680 nM
IC50 (MDA-MB-231; source data sheet, single values of three experiments, read-out: MTT IC50 MDA-MB-231): 2110 nM and 2310 nM
